Entries after “also recorded” stand apart in the source; their conditions may differ.
What was measured:
red globules [1] = test: Anti-sludge activity in vivo in the rat
[2] = tested on: blood-platelet aggregation; test: Clinical study, second series: inhibition of blood-platelet aggregation; type: in vivo, human; details: oral capsules, 700 mg per day, 7 days plus morning of 8th day, 11 patients
Protocol: (§1) In a second series of tests, the MS salt was again administered orally in the form of capsules containing 175 mg of the active salt. Eleven patients were treated, each patient receiving 4 capsules per day containing a total of 700 mg of MS salt divided in two portions of 350 mg morning and evening, after meals, for 7 days, and on the 8th day in the morning only. Therefore, the total amount of active ingredient (MS salt) was 5250 mg to each subject.

Anti-thrombotic activity = details: in vivo
Diuretic activity = details: in vivo
[3] = Anti-inflammatory activity; type: in vivo; details: result in words; listed as MS salt, methanesulfonate
[4] = Hypolipidic, hypocholesterol, hypoglycemic activity; details: in vivo
Acute toxicity in mice = details: mouse, in vivo
Protocol: (§2) The preferred methanesulfonate salt of the present invention was tested for acute and sub-acute toxicity and the results obtained on rats and mice by oral, intravenous and intraperitoneal administration are set forth in the tables below.

rabbit = test: Cardiovascular action in anesthetized rabbit; type: in vivo; details: perfusions at high dosages
Hemostasis activity = details: in vivo
central nervous system [5] = test: Central nervous system activity per se, rats; type: in vivo
red globules [6] = test: Anti-sludge activity in vitro on red globules; type: cell-based
human patients = test: Clinical study, first series: tolerance; type: in vivo; details: oral capsules, 350 to 1400 mg per day, 3 weeks, 12 patients
Protocol: The MS salt has been administered to human patients orally in the form of capsules each containing 175 mg of the active salt. Twelve patients were treated in four groups; one group receiving 2 capsules per day (350 mg); a second group receiving 4 capsules per day (700 mg); a third group receiving 6 capsules per day (1050 mg); and the fourth group receiving 8 capsules per day (1400 mg). This regimen was continued for 3 weeks.

Acute toxicity in rats = details: rat, in vivo
Protocol: as §2

dogs [7] = test: Toxicity by intravenous administration in dogs; type: in vivo
Protocol: Further tests were conducted by intravenous administration of the MS salt to the dogs. In these tests 15 dogs were divided into three groups of 2 male and 3 female dogs each. One group was used as a control; only the 5 ml of […] aqueous saline vehicle being injected intravenously. The other two groups of dogs received intravenous injections of the MS salt in the same vehicle; one group a 2.5% solution of the MS salt at a dosage of 7.5 mg/Kg and the other group receiving the same solution at a dosage of 15 mg/Kg.

[8] = tested on: effects of oxotremorine or reserpine; test: Modification of the effects of oxotremorine or reserpine; type: in vivo; details: alone or together with ethyl alcohol
[9] = tested on: central nervous system activity of chloral and "Nembutal"; test: Potentiation of central nervous system activity of chloral and Nembutal; type: in vivo
patients = test: Clinical study, second series: tolerance; type: in vivo, human; details: oral capsules, 700 mg per day, 7 days plus morning of 8th day, 11 patients
Protocol: as §1

Analgesic activity = details: in vivo
central nervous system [10] = test: Central nervous system activity per se, mice; type: in vivo
Vasodilator activity = type: in vivo; details: result in words
dogs [11] = test: Toxicity by oral administration in dogs; type: in vivo; details: 33 to 100 mg/Kg/day, 24 days
Protocol: Further toxicity investigations were carried out on the MS salt by oral administration in dogs. Two groups of 10 adult dogs were selected; one group being used as the control and the second group having the MS salt administered orally in increasing dosages as follows: […]

[12] = tested on: musculotropic isolated intestine; test: Anti-spasmodic activity on isolated intestine
[13] = tested on: blood-platelet aggregation (ADP); test: Inhibitor action on blood-platelet aggregation, ADP method (ex vivo after gastric tube dosing); type: in vivo, female rats of the Wistar type; details: 100 mg/Kg base equivalent at 48, 24 and 2 h before blood drawing
Protocol: The inhibitor action on blood-platelet aggregation of the salts of the present invention was determined by two different standard methods known to the art.
The first method, involving the use of ADP (adenosine diphosphate), is that of Ferrand J. C., Gaich C., Dumas, A.--EVALUATION DE L' EFFET ANTI-AGREGANT DE LA TICLOPIDINE PAR UNE TECHNIQUE SUR SANG TOTAL. COMM. SOCIETE DE BIOLOGIE DE TOULOUSE (TOULOUSE Feb. 9, 1978), RESUME IN: REV MED TOULOUSE, 1978, 14, (SUPPL. 5) 680, referred to hereinafter as the ADP method.
Groups of 10 female rats of the Wistar type were each dosed with one of the base or one of the salts of the invention and with the corresponding maleate salt of Amselem U.S. Pat. No. 4,097,482, at periods of 48 hours, 24 hours and 2 hours prior to drawing blood for testing by the ADP and collagen techniques referred to above. The active medicaments were administered by means of a gastric tube in the form of a 5% aqueous solution of gum arabic. A dosage level of 100 mg/Kg was used for the base, and for the salts an amount was used sufficient to provide the equivalent amount of the base portion of the salt.

CS(=O)(=O)O.N#Cc1ccccc1CN1CCc2sccc2C1 [Methanesulfonate, 5-o-Cyanobenzyl-4,5,6,7-tetrahydrothieno [3,2-c] pyridine methanesulfonate]
anti-sludge activity in vivo, intravenous (red globules [1]; administered intravenously): also in vivo when administered orally or intravenously in the rat
anti-sludge activity in vivo, oral (red globules [1]; administered orally): also in vivo when administered orally
inhibitory activity on blood-platelet aggregation in patients [2]: very effective inhibitory activity on blood-platelet aggregation
anti-thrombotic activity (Anti-thrombotic activity): exhibits anti-thrombotic activity
diuretic activity (Diuretic activity): free of diuretic activity
anti-inflammatory activity [3]: free of anti-inflammatory or vasodilator activity as is the MS salt; also recorded: without anti-inflammatory activity
hypocholesterol activity [4]: no hypolipidic, hypocholesterol
hypoglycemic activity [4]: no hypolipidic, hypocholesterol, or hypoglycemic activity
hypolipidic activity [4]: no hypolipidic
LD50 at 8 h (Acute toxicity in mice; intravenous, read-out: LD50, intravenous, mice): 134 mg/kg
LD50 at 8 h (Acute toxicity in mice; ip, intraperitoneal, read-out: LD50, intraperitoneal, mice): 898 mg/kg
LD50 at 8 h (Acute toxicity in mice; oral, read-out: LD50, oral, mice): 883 mg/kg
cardiovascular depressive action (rabbit): cardiovascular depressive action
hemostasis activity (Hemostasis activity): no hemostasis activity
influence on the central nervous system per se, rats (central nervous system [5]): no influence on the central nervous system
anti-sludge activity in vitro (red globules [6]): anti-sludge activity in vitro on red globules
clinical tolerance (human patients): Clinical tolerance was excellent
side effects or incidents (human patients): no side effects or incidents being noted
LD50 at 8 h (Acute toxicity in rats; intravenous, read-out: LD50, intravenous, rats): 80.2 mg/kg
LD50 at 8 h (Acute toxicity in rats; ip, intraperitoneal, read-out: LD50, intraperitoneal, rats): 719 mg/kg
toxicity and tolerance in dogs (overall) (dogs [7]; conclusion from oral and intravenous tests): of low toxicity and well-tolerated by dogs
death (dogs [7]; intravenous, 7.5 and 15 mg/Kg, 2.5% solution in 9% aqueous saline, 23 consecutive days): without the death of any dog
modification of the effects of oxotremorine [8]: does not modify the effects of oxotremorine
modification of the effects of reserpine [8]: does not modify the effects of oxotremorine or reserpine
potentiation of central nervous system activity of Nembutal ([9]; "Nembutal" (Ca or Na pentobarbital)): does potentialize the central nervous system activity
potentiation of central nervous system activity of chloral ([9]; chloral): does potentialize the central nervous system activity of chloral
clinical tolerance (patients): Clinical tolerance was excellent
analgesic properties (Analgesic activity): free of analgesic properties
influence on the central nervous system per se, mice (central nervous system [10]): no influence on the central nervous system
peripheral and cerebral vasodilator activity (Vasodilator activity): lacks the peripheral and cerebral vasodilator activity
vasodilator action (Vasodilator activity; listed as MS salt, methanesulfonate): without causing vasodilator action; also recorded: free of anti-inflammatory or vasodilator activity as is the MS salt
deaths attributable to the salt (dogs [11]): No deaths occurred which were attributable to the MS salt
hematological, blood biochemical or urinary functions (dogs [11]): No significant variations
vomiting (dogs [11]): some of the dogs experienced some vomiting
anti-spasmodic activity [12]: exhibit anti-spasmodic activity
BLOOD PLATELET AGGREGATION, ADP, 1 mn 30 s ([13]; 1 mn 30 s, controls 0.29): 0.73
BLOOD PLATELET AGGREGATION, ADP, 3 mn ([13]; 3 mn, controls 0.40): 0.88
